Key:
Test in all cases: relative viability (nuclei count vs DMSO), 5 days (fraction); higher = more cells survive
BMX-IN-1 + Crizotinib = compound: C=CC(=O)Nc1cc(-n2c(=O)ccc3cnc4ccc(-c5ccc(NS(C)(=O)=O)cc5)cc4c32)ccc1C [BMX-IN-1] + C[C@@H](Oc1cc(-c2cnn(C3CCNCC3)c2)cnc1N)c1c(Cl)ccc(F)c1Cl [Crizotinib] (partner 1 µM)
Procedure, shortened: (§1)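 The day after seeding in 1536-well plates, lung cancer cell lines were treated by pin tool with a single drug, or with a fixed anchor-drug dose together with five library-drug doses (not always all listed) in √10 steps. After 5 days, a combined fix-and-stain solution (final 0.05% Triton X-100, 1% formaldehyde, 1 ug/ml Hoechst) was added. Nuclei counted on 4× images gave relative viability as treated counts over vehicle counts, reported as the median of duplicate plates.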

BMX-IN-1 + Bortezomib = compound: C=CC(=O)Nc1cc(-n2c(=O)ccc3cnc4ccc(-c5ccc(NS(C)(=O)=O)cc5)cc4c32)ccc1C [BMX-IN-1] + CC(C)C[C@H](NC(=O)[C@H](Cc1ccccc1)NC(=O)c1cnccn1)B(O)O [Bortezomib] (partner 0.002 µM)
Procedure, shortened: as §1

Ibrutinib + Bortezomib = compound: C=CC(=O)N1CCC[C@@H](n2nc(-c3ccc(Oc4ccccc4)cc3)c3c(N)ncnc32)C1 [Ibrutinib] + CC(C)C[C@H](NC(=O)[C@H](Cc1ccccc1)NC(=O)c1cnccn1)B(O)O [Bortezomib] (partner 0.002 µM)
Procedure, shortened: as §1

BMX-IN-1 + Dasatinib = compound: C=CC(=O)Nc1cc(-n2c(=O)ccc3cnc4ccc(-c5ccc(NS(C)(=O)=O)cc5)cc4c32)ccc1C [BMX-IN-1] + Cc1nc(Nc2ncc(C(=O)Nc3c(C)cccc3Cl)s2)cc(N2CCN(CCO)CC2)n1 [Dasatinib] (partner 0.075 µM)
Procedure, shortened: as §1

Cell Line	relative viability (BMX-IN-1 + Crizotinib; first compound 0.02 µM)	relative viability (BMX-IN-1 + Crizotinib; first compound 0.2 µM)	relative viability (BMX-IN-1 + Crizotinib; first compound 0.6325 µM)	relative viability (BMX-IN-1 + Crizotinib; first compound 2 µM)	relative viability (BMX-IN-1 + Bortezomib; first compound 0.02 µM)	relative viability (BMX-IN-1 + Bortezomib; first compound 0.2 µM)	relative viability (BMX-IN-1 + Bortezomib; first compound 0.6325 µM)	relative viability (BMX-IN-1 + Bortezomib; first compound 2 µM)	relative viability (Ibrutinib + Bortezomib; first compound 0.005 µM)	relative viability (Ibrutinib + Bortezomib; first compound 0.01581 µM)	relative viability (Ibrutinib + Bortezomib; first compound 0.05 µM)	relative viability (Ibrutinib + Bortezomib; first compound 0.1581 µM)	relative viability (Ibrutinib + Bortezomib; first compound 0.5 µM)	relative viability (BMX-IN-1 + Dasatinib; first compound 0.02 µM)	relative viability (BMX-IN-1 + Dasatinib; first compound 0.2 µM)	relative viability (BMX-IN-1 + Dasatinib; first compound 0.6325 µM)	relative viability (BMX-IN-1 + Dasatinib; first compound 2 µM)
NCI-H727	1.15	1.12	1.01	0.846	1	0.869	1.05	0.939	0.628	0.796	0.981	0.623	0.785	0.438	0.339	0.479	0.444
NCI-H1734	0.797	0.807	0.794	0.703	1.05	1.24	0.964	1.17	0.799	0.923	1.02	0.989	0.929	0.463	0.504	0.476	0.467
NCI-H1651	0.976	1.01	0.907	0.862	0.959	1.06	0.921	0.951	0.953	0.971		0.822	0.967	0.213	0.515	0.435	0.406
NCI-H1650	1.15	1.11	1.03	0.918	0.178	0.203	0.201	0.186	0.22	0.216	0.23	0.203	0.22	0.299	0.307	0.423	0.294
NCI-H2009	1.11	1.07	1.26	1.06	1.07	1.19	1.16	1.01	1.09	1	0.988	0.864	1.05	0.303	0.294	0.278	0.271
NCI-H1563	0.794	0.887	0.86	0.761	0.896	0.925	0.891	0.79	0.778	0.771	0.807	0.742	0.752	0.441	0.463	0.423	0.428
NCI-H2347	0.735	0.678	0.675	0.624	0.985	1.24	1.14	1		0.982	1.03		0.871	0.344	0.281	0.287	0.323
NCI-H460	1.57	1.76	0.906	1.03	1.94		1.29	1.03	1.27	1.02	1.19	1.19	1.27	0.621	0.682	0.679	0.494
